Legend:
LNCaP cells [1] = test: Microscopic cell morphology observation; type: cell-based, human; conditions: 24 and 72 h of treatment
Experimental: In our previous work, 16E-arylidene-4-azaandrost-5-ene derivatives were synthesized, their antiproliferative effects were evaluated and further studies were performed with the most promising steroid in LNCaP cells. Due to the similarity of 16E-arylidene-4-azaandrostenes and these novel 21E-arylidene-4-azapregnene derivatives, identical studies in this cell line were performed, namely a flow cytometry assay and microscopic cell morphology observation. To assess the viability of LNCaP cells when exposed to steroid 3g, a flow cytometry assay after PI staining was performed. Cells were treated with 3g and 5-FU during 24 and 72 h, and then a microscopic cell observation was performed to assess the possible morphological alterations and cell density changes triggered by incubation with 3g and compare with controls (Figure 6).
Similar to the previous study, the analysis of cell viability was accomplished by flow cytometry after staining dead cells with propidium iodide (PI; Invitrogen, Carlsbad, USA). Succinctly, 1 mL of a cell suspension was seeded in 12-well culture plates (initial cell density of 5 × 10^4 cells/mL of LNCaP cells for 24 h assay and 2 × 10^4 cells/mL of the same cell line for 72 h assay) in a complete culture medium. […] The percentages of each region were calculated for a total of R1 + R2 + R3. […]

T47-D cells = test: MTT cell proliferation assay, T47-D; type: cell-based, human; conditions: 30 µM, 72 h, average ± SD
Experimental: (§1) Cell lines, namely LNCaP, PC-3, T47-D and NHDF were obtained from American Type Culture Collection (ATCC; Manassas, VA, USA) and cultured in 75 cm^2 culture flasks at 37 °C in a humidified air incubator with 5% CO2. LNCaP, PC-3 and T47-D cells, which were used in passages 20th to 27th, 25th to 29th and 10th to 15th, respectively, were cultured in RPMI 1640 medium (Sigma-Aldrich, Inc., St. Louis, MO, USA) with 10% fetal bovine serum (FBS; Sigma-Aldrich, Inc. St. Louis, MO, USA) and 1% of the antibiotic mixture of 10,000 IU/mL penicillin G and […] of streptomycin (Sp, Sigma-Aldrich, Inc. St. Louis, MO, USA). Finally, NHDF cells (Normal Human Dermal Fibroblasts) were cultured in RPMI 1640 medium supplemented with 10% FBS, 2 mM L-glutamine, 10 mM HEPES, 1 mM sodium pyruvate and 1% of an antibiotic/antimycotic mixture (10,000 U/mL penicillin G, 100 mg/mL streptomycin and 25 µg/mL amphotericin B) (Ab; Sigma-Aldrich, Inc. St. Louis, MO, USA), and these cells were used in passages 10 to 12. For all cell types, the medium was renewed every 2–3 days until cells reach nearly the confluence state. Then, they were detached gently by trypsinization (trypsin-EDTA solution: 0.125 g/L of trypsin and 0.02 g/L of EDTA).
(§2) All the stock solutions were prepared by dissolving compounds in dimethyl sulfoxide (DMSO; Sigma-Aldrich, Inc., St. Louis, MO, USA) at 10 mM and stored at 4 °C. From these solutions, the several diluted compounds solutions in different concentrations were freshly prepared in a complete culture medium before each experiment.
(§3) As previously referred, cells were trypsinized after reaching a near confluence state and counted by the trypan blue exclusion assay in a Neubauer chamber. Then, 100 µL of cell suspension/well with an initial density of 2 × 10^4 cells/mL were seeded in 96-well culture plates (Nunc, Apogent, Denmark) and left to adhere for 48 h. After cells adherence, the medium was replaced by the distinct solutions of the compounds in the study (30 µM for preliminary studies and 0.01, 0.1, 1, 10, 50 and 100 µM for concentration–response studies) in the appropriate medium for approximately 72 h. 5-FU and finasteride were used as positive controls and untreated cells were used as the negative control. Each experiment was performed in quadruplicate and independently performed at least two times. The in vitro antiproliferative effects were evaluated by the MTT assay (Sigma-Aldrich, Inc. St. Louis, USA). After the incubation period, the medium was removed and 100 µL of phosphate buffer saline (NaCl 137 mM, KCl 2.7 mM, Na2HPO4 10 mM and KH2PO4 1.8 mM in deionized water and pH adjusted to 7.4) were used to wash the cells. Then, 100 µL of the MTT solution (5 mg/mL) was prepared in the appropriate serum-free medium and was added to each well, followed by incubation for 4 h at 37 °C. Hereafter, the MTT containing medium was removed and the formazan crystals were dissolved in DMSO. Then the absorbance was measured at 570 nm using a microplate spectrophotometer BIO-RAD xMarkTM. Cell viability values were expressed as percentages relative to the absorbance determined in the cells used as negative controls.
(§4) The data are expressed as a mean ± standard deviation (SD) and differences between groups were considered statistically significant when p < 0.05. The IC50 values were determined through sigmoidal fitting analysis with variable slope and considering a 95% confidence level. All data shown are representative of at least two independent experiments.

[2] = test system: NHDF cells (Normal Human Dermal Fibroblasts); test: MTT cell proliferation assay, NHDF; type: cell-based; conditions: 30 µM, 72 h, average ± SD
Experimental: as §1, §2, §3, §4

PC-3 cells = test: MTT cell proliferation assay, PC-3; type: cell-based, human; conditions: PC-3, 30 µM, 72 h, average ± SD
Experimental: as §1, §2, §3, §4

LNCaP cells [3] = test: MTT cell proliferation assay, LNCaP; type: cell-based, human; conditions: 30 µM, 72 h, average ± SD
Experimental: as §1, §2, §3, §4

CC(C)(C)NC(=O)[C@H]1CC[C@H]2[C@@H]3CC[C@H]4NC(=O)C=C[C@]4(C)[C@H]3CC[C@]12C [Finasteride, reference compound]
Cell morphology and cell density (LNCaP cells [1]): cell density reduction and the preservation of healthy cells morphology
MTT screening, cell proliferation (T47-D cells): 103.5 ± 17.8 percentage of negative control
MTT screening, cell proliferation [2]: 62.8 ± 5.9 percentage of negative control
MTT screening, cell proliferation (PC-3 cells): 78.8 ± 8.7 percentage of negative control
MTT screening, cell proliferation (LNCaP cells [3]): 88.5 ± 2.4 percentage of negative control

— paper PMC9501232, “Novel 4-Azapregnene Derivatives as Potential Anticancer Agents: Synthesis, Antiproliferative Activity and Molecular Docking Studies” (Molecules, 2022)
